Drawing on US7812021B2, “Pyrrolidine aryl-ether as NK3 receptor antagonists” (Hoffmann-La Roche Inc., priority 2007, dated 2010), this text covers Ki for 17 compounds.

The target of the experiment is T1, recombinant human NK3 receptor (Homo sapiens, UniProt P29371).
T1 construct: expressed in transfected cells; host or cells: HEK293 cells, transient expression; membranes
T1 sequence (P29371 1-465): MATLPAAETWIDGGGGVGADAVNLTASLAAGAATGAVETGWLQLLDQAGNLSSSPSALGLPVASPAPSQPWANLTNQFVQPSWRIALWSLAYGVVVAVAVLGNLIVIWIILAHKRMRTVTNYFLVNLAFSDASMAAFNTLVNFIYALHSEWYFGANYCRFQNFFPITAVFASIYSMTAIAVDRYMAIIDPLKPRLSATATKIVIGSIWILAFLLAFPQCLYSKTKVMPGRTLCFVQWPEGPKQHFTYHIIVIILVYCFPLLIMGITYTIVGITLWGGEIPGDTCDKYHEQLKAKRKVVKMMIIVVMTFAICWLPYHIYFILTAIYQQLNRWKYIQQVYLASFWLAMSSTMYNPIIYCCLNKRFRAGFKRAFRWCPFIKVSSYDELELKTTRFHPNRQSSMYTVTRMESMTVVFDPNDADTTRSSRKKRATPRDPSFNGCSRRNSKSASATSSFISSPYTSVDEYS
Nature of the experiment: [3H]SR142801 competition binding assay. The following applies: membranes from HEK293 cells transiently expressing recombinant human NK3 receptor; [3H]SR142801 radioligand; Ki by Cheng-Prussoff. As to the method:
[^3H]SR142801 Competition Binding Assay
hNK3 receptor binding experiment were performed using [^3H]SR142801 (Catalog No. TRK1035, specific activity: 74.0 Ci/mmol, Amersham, GE Healthcare UK limited, Buckinghamshire, UK) and membrane isolated from HEK293 cells transiently expressing recombinant human NK3 receptor. After thawing, the membrane homogenates were centrifuged at 48,000×g for 10 min at 4° C., the pellets were resuspended in the 50 mM Tris-HCl, 4 mM MnCl2, 1 μM phosphoramidon, 0.1% BSA binding buffer at pH 7.4 to a final assay concentration of 5 μg protein/well. For inhibition experiments, membranes were incubated with [^3H]SR142801 at a concentration equal to KD value of radioligand and 10 concentrations of the inhibitory compound (0.0003-10 μM) (in a total reaction volume of 500 μl) for 75 min at room temperature (RT). At the end of the incubation, membranes were filtered onto unit filter (96-well white microplate with bonded GF/C filter preincubated 1 h in 0.3% PEI+0.3% BSA, Packard BioScience, Meriden, Conn.) with a Filtermate 196 harvester (Packard BioScience) and washed 4 times with ice-cold 50 mM Tris-HCl, pH 7.4 buffer. Nonspecific binding was measured in the presence of 10 μM SB222200 for both radioligands. The radioactivity on the filter was counted (5 min) on a Packard Top-count microplate scintillation counter with quenching correction after addition of 45 μl of microscint 40 (Canberra Packard S. A., Zürich, Switzerland) and shaking for 1 h. Inhibition curves were fitted according to the Hill equation: y=100/(1+(x/IC50)^nH), where nH=slope factor using Excel-fit 4 software (Microsoft). IC50 values were derived from the inhibition curve and the affinity constant (Ki) values were calculated using the Cheng-Prussoff equation Ki=IC50/(1+[L]/KD) where [L] is the concentration of radioligand and KD is its dissociation constant at the receptor, derived from the saturation isotherm. All experiments were performed in duplicate and the mean±standard error (SEM) of the individual Ki values was calculated.

For orientation: Ki means the equilibrium dissociation constant of an inhibitor or competing ligand from its target. For `C[C@@H]1CN(C(=O)N2C[C@@H]([C@@H](C)Oc3ccc(C(F)(F)F)cc3)[C@H](c3ccc(Cl)c(Cl)c3)C2)CCN1S(C)(=O)=O` (mixture of isomers) [Example 27, {(3RS,4SR)-3-(3,4-Dichloro-phenyl)-4-[(RS)-1-(4-trifluoromethyl-phenoxy)-ethyl]-pyrrolidin-1-yl}-((R)-4-methanesulfonyl-3-methyl-piperazin-1-yl)-methanone], the inhibition constant (Ki) worked out at 0.0096 µM.
Take `C[C@@H](Oc1ccc(Cl)cc1)[C@@H]1CN(C(=O)N2CCN(S(C)(=O)=O)CC2)C[C@H]1c1ccc(Cl)c(Cl)c1` (mixture of isomers) [Example 36, [(3SR,4RS)-3-[(R)-1-(4-Chloro-phenoxy)-ethyl]-4-(3,4-dichloro-phenyl)-pyrrolidin-1-yl]-(4-methanesulfonyl-piperazin-1-yl)-methanone]: the Ki was 0.0211 µM.
In the case of `C[C@@H]1CN(C(=O)N2C[C@@H]([C@@H](C)Oc3ccc(Cl)cn3)[C@H](c3ccc(Cl)c(Cl)c3)C2)CCN1S(C)(=O)=O` (mixture of isomers) [Example 54, [(3SR,4RS)-3-[(RS)-1-(5-Chloro-pyridin-2-yloxy)-ethyl]-4-(3,4-dichloro-phenyl)-pyrrolidin-1-yl]-((R)-4-methanesulfonyl-3-methyl-piperazin-1-yl)-methanone], the Ki was determined as 0.002 µM.
The figure for `C[C@@H](Oc1ccc(C(F)(F)F)cc1)[C@@H]1CN(C(=O)N2CCN(S(C)(=O)=O)CC2)C[C@H]1c1ccc(Cl)c(Cl)c1` (racemic) [Example 16, {(3RS,4SR)-3-(3,4-Dichloro-phenyl)-4-[(RS)-1-(4-trifluoromethyl-phenoxy)-ethyl]-pyrrolidin-1-yl}-(4-methanesulfonyl-piperazin-1-yl)-methanone] is 0.0288 µM.
With `C[C@H](Oc1ccc(C(F)(F)F)cc1)[C@@H]1CN(C(=O)N2CCN(S(C)(=O)=O)CC2)C[C@H]1c1ccc(Cl)c(Cl)c1` (racemic) [Example 17, {(3RS,4SR)-3-(3,4-Dichloro-phenyl)-4-[(SR)-1 (4-trifluoromethyl-phenoxy)-ethyl]-pyrrolidin-1-yl}-(4-methanesulfonyl-piperazin-1-yl)-methanone], the Ki was found to be 0.0468 µM.
The figure for `C[C@@H](Oc1ccc(C(F)(F)F)cc1)[C@@H]1CN(C(=O)N2CCC(N(C)S(C)(=O)=O)CC2)C[C@H]1c1ccc(Cl)c(Cl)c1` (racemic) [Example 18, N-(1-{(3RS,4SR)-3-(3,4-Dichloro-phenyl)-4-[(RS)-1-(4-trifluoromethyl-phenoxy)-ethyl]-pyrrolidine-1-carbonyl}-piperidin-4-yl)-N-methyl-methanesulfonamide] is 0.0779 µM; for `C[C@@H](Oc1ccc(C(F)(F)F)cc1)[C@@H]1CN(C(=O)CN2CCC(N(C)S(C)(=O)=O)CC2)C[C@H]1c1ccc(Cl)c(Cl)c1` (racemic) [Example 20, N-[1-(2-{(3RS,4SR)-3-(3,4-Dichloro-phenyl)-4-[(RS)-1-(4-trifluoromethyl-phenoxy)-ethyl]-pyrrolidin-1-yl}-2-oxo-ethyl)-piperidin-4-yl]-N-methyl-methanesulfonamide] it is 0.0595 µM; for `CC(=O)N1CCN(CC(=O)N2C[C@@H]([C@@H](C)Oc3ccc(C(F)(F)F)cc3)[C@H](c3ccc(Cl)c(Cl)c3)C2)CC1` (racemic) [Example 24, 2-(4-Acetyl-piperazin-1-yl)-1-{(3RS,4SR)-3-(3,4-dichloro-phenyl)-4-[(RS)-1-(4-trifluoromethyl-phenoxy)-ethyl]-pyrrolidin-1-yl}-ethanone] it is 0.0589 µM.
Then `CC(=O)NC1CCN(CC(=O)N2C[C@@H]([C@@H](C)Oc3ccc(C(F)(F)F)cc3)[C@H](c3ccc(Cl)c(Cl)c3)C2)CC1` (racemic) [Example 25, N-[1-(2-{(3RS,4SR)-3-(3,4-Dichloro-phenyl)-4-[(RS)-1-(4-trifluoromethyl-phenoxy)-ethyl]-pyrrolidin-1-yl}-2-oxo-ethyl)-piperidin-4-yl]-acetamide], with 0.0597 µM.
Regarding `C[C@@H](Oc1ccc(Cl)c(Cl)c1)[C@@H]1CN(C(=O)N2CCN(S(C)(=O)=O)CC2)C[C@H]1c1ccc(Cl)c(Cl)c1` (racemic) [Example 30, [(3SR,4RS)-3-[(RS)-1-(3,4-Dichloro-phenoxy)-ethyl]-4-(3,4-dichloro-phenyl)-pyrrolidin-1-yl]-(4-methanesulfonyl-piperazin-1-yl)-methanone], the inhibition constant Ki came out at 0.0796 µM.
For `Cc1ccc(O[C@H](C)[C@@H]2CN(C(=O)N3CCN(S(C)(=O)=O)CC3)C[C@H]2c2ccc(Cl)c(Cl)c2)cc1` (racemic) [Example 31, [(3RS,4SR)-3-(3,4-Dichloro-phenyl)-4-((RS)-1-p-tolyloxy-ethyl)-pyrrolidin-1-yl]-(4-methanesulfonyl-piperazin-1-yl)-methanone], the Ki was 0.0589 µM.
Turning to `C[C@@H](Oc1ccc(C#N)cc1)[C@@H]1CN(C(=O)N2CCN(S(C)(=O)=O)CC2)C[C@H]1c1ccc(Cl)c(Cl)c1` (racemic) [Example 33, 4-{(RS)-1-[(3SR,4RS)-4-(3,4-Dichloro-phenyl)-1-(4-methanesulfonyl-piperazine-1-carbonyl)-pyrrolidin-3-yl]ethoxy}-benzonitrile], the Ki was 0.0756 µM.
The figure for `C[C@@H](Oc1ccc(F)cc1)[C@@H]1CN(C(=O)N2CCN(S(C)(=O)=O)CC2)C[C@H]1c1ccc(Cl)c(Cl)c1` (racemic) [Example 34, {(3RS,4SR)-3-(3,4-Dichloro-phenyl)-4-[(RS)-1-(4-fluoro-phenoxy)-ethyl]-pyrrolidin-1-yl}-(4-methanesulfonyl-piperazin-1-yl)-methanone] is 0.0401 µM; for `C[C@@H](Oc1ccc(Cl)cn1)[C@@H]1CN(C(=O)N2CCN(S(C)(=O)=O)CC2)C[C@H]1c1ccc(Cl)c(Cl)c1` (racemic) [Example 39, [(3SR,4RS)-3-[(RS)-1-(5-Chloro-pyridin-2-yloxy)-ethyl]-4-(3,4-dichloro-phenyl)-pyrrolidin-1-yl]-(4-methanesulfonyl-piperazin-1-yl)-methanone] it is 0.0029 µM; for `C[C@@H](Oc1ccc(F)c(Cl)c1)[C@@H]1CN(C(=O)N2CCN(S(C)(=O)=O)CC2)C[C@H]1c1ccc(Cl)c(Cl)c1` (racemic) [Example 41, [(3SR,4RS)-3-[(RS)-1-(3-Chloro-4-fluoro-phenoxy)-ethyl]-4-(3,4-dichloro-phenyl)-pyrrolidin-1-yl]-(4-methanesulfonyl-piperazin-1-yl)-methanone] it is 0.049 µM.
The figure for `C[C@@H](Oc1ncccn1)[C@@H]1CN(C(=O)N2CCN(S(C)(=O)=O)CC2)C[C@H]1c1ccc(Cl)c(Cl)c1` (racemic) [Example 42, [(3RS,4SR)-3-(3,4-Dichloro-phenyl)-4-[(RS)-1-(pyrimidin-2-yloxy)-ethyl]-pyrrolidin-1-yl}-(4-methanesulfonyl-piperazin-1-yl)-methanone] is 0.0699 µM; for `C[C@H](Oc1ccc(C#N)cc1)[C@@H]1CN(C(=O)N2CCN(S(C)(=O)=O)CC2)C[C@H]1c1ccc(Cl)c(Cl)c1` (racemic) [Example 45, 4-{(SR)-1-[(3SR,4RS)-4-(3,4-Dichloro-phenyl)-1-(4-methanesulfonyl-piperazine-1-carbonyl)-pyrrolidin-3-yl]-ethoxy}-benzonitrile] it is 0.0954 µM.
